Assay results as given in US20240158446A1, “CYCLIC COMPOUND HAVING SELECTIVE INHIBITORY ACTION ON KRAS OVER HRAS AND NRAS” (CHUGAI SEIYAKU KABUSHIKI KAISHA, priority 2021, published 2024).
Like-named read-outs stand apart in the source and are kept apart here. Where a SMILES comes first, the peptide text is derived from it. Bridges are numbered along the chain shown (N, C = ends). [ ]: non-standard residue; d: D form. The star is where a group is joined. hPhe(3-Cl-4-CF3) = N[C@@H](CCc1ccc(C(F)(F)F)c(Cl)c1)C(=O)O; NPrPhe(4-CF3) = CCCN[C@@H](Cc1ccc(C(F)(F)F)cc1)C(=O)O; Pro(4-spirocPr) = O=C(O)[C@@H]1CC2(CC2)CN1; NMeGly(cPent) = CN[C@H](C(=O)O)C1CCCC1; Pro(4S-Me) = C[C@@H]1CN[C@H](C(=O)O)C1; NMeD = CN[C@@H](CC(=O)O)C(=O)O; NMeL = CN[C@@H](CC(C)C)C(=O)O; Morpholide = C1CN(*)CCO1; Ac5c = NC1(C(=O)O)CCCC1; Ac3c = NC1(C(=O)O)CC1; NEtG = CCNCC(=O)O; Sar = CNCC(=O)O

How the values were obtained:
[1] = target: GDP-bound NRAS wild-type protein (Homo sapiens, UniProt P01111); assay: Binding to NRAS by surface plasmon resonance (SPR), Single Cycle Kinetics; details: for NRAS/KRAS (ratio of KD value with respect to NRAS to KD value with respect to KRAS) / NRAS/KRAS (ratio of KD value for NRAS to KD value for KRAS): SPR, GDP-bound NRAS wild-type protein vs GDP-bound KRAS wild-type protein; for NRAS/KRAS (ratio of KD value with respect to GDP-bound NRAS wild-type protein to KD value with respect to KRAS): SPR KD ratio NRAS/KRAS, class symbols
[2] = target: GDP-bound KRAS wild-type protein (Homo sapiens, UniProt P01116); assay: Binding to KRAS by surface plasmon resonance (SPR), Single Cycle Kinetics; details: GDP-bound KRAS wild-type protein, read-out: KRAS KD
[3] = target: GDP-bound HRAS wild-type protein (Homo sapiens, UniProt P01112); assay: Binding to HRAS by surface plasmon resonance (SPR), Single Cycle Kinetics; details: for HRAS/KRAS (ratio of KD value with respect to HRAS to KD value with respect to KRAS) / HRAS/KRAS (ratio of KD value for HRAS to KD value for KRAS): SPR, GDP-bound HRAS wild-type protein vs GDP-bound KRAS wild-type protein; for HRAS/KRAS (ratio of KD value with respect to GDP-bound HRAS wild-type protein to KD value with respect to KRAS): SPR KD ratio HRAS/KRAS, class symbols
[4] = SPR Single Cycle Kinetics, 1:1 binding model

Chain of GDP-bound KRAS wild-type protein (P01116 whole entry): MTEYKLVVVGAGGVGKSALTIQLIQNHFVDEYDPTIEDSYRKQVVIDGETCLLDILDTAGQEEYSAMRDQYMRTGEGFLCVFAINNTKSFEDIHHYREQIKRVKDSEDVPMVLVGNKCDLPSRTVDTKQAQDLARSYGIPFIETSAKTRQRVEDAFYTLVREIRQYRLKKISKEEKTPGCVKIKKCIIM
Chain of GDP-bound NRAS wild-type protein (P01111 whole entry): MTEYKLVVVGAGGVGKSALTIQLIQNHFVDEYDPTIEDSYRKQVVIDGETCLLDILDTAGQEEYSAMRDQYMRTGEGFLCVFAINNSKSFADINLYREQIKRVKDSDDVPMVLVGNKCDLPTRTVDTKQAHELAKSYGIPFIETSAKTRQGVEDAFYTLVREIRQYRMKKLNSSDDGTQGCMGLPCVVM
Chain of GDP-bound HRAS wild-type protein (P01112 whole entry): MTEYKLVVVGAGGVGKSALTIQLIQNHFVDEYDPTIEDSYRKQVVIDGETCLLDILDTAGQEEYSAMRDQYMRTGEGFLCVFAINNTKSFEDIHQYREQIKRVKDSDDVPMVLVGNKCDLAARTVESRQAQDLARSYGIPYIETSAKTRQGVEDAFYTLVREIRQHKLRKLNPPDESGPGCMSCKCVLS

Structure (SMILES) | NRAS/KRAS (ratio of KD value with respect to NRAS to KD value with respect to KRAS) [1] | Kd [2, 4] | HRAS/KRAS (ratio of KD value with respect to HRAS to KD value with respect to KRAS) [3] | NRAS/KRAS (ratio of KD value for NRAS to KD value for KRAS) [1] | Kd ([2]; SPR, Single Cycle Kinetics) | HRAS/KRAS (ratio of KD value for HRAS to KD value for KRAS) [3] | NRAS/KRAS (ratio of KD value with respect to GDP-bound NRAS wild-type protein to KD value with respect to KRAS) [1] | HRAS/KRAS (ratio of KD value with respect to GDP-bound HRAS wild-type protein to KD value with respect to KRAS) [3]
CCCN1C(=O)CN(C)C(=O)CNC(=O)[C@H]([C@@H](C)CC)NC(=O)[C@H](CC(C)C)N(C)C(=O)C[C@@H](C(=O)N2CCOCC2)N(C)C(=O)[C@H](C2CCCC2)N(C)C(=O)C2(CCCC2)NC(=O)[C@@H]2C[C@H](C)CN2C(=O)[C@H](CCc2ccc(C(F)(F)F)c(Cl)c2)NC(=O)CN(C)C(=O)[C@@H]1Cc1ccc(C(F)(F)F)cc1 [PP0449] ([NMeL]IG[Sar][NPrPhe(4-CF3)][Sar][hPhe(3-Cl-4-CF3)][Pro(4S-Me)][Ac5c][NMeGly(cPent)][NMeD]-Morpholide; lactam N-11) | C (A compound having a KD ratio of 0.1 or more and less than 3 is denoted as C) | 0.35 nM | C (A compound having a KD ratio of 0.1 or more and less than 3 is denoted as C) | – | – | – | – | –
CCO[C@@H]1C[C@H]2C(=O)NC3(CCC3)C(=O)N(C)[C@@H](C3CCCC3)C(=O)N(CCC3CCC3)[C@H](C(=O)N(C)C)CC(=O)N(C)[C@@H](CC)C(=O)N[C@@H]([C@@H](C)CC)C(=O)N(C)CC(=O)N(C)[C@H]3CCCCCN(C3=O)[C@@H](Cc3ccc(C(F)(F)F)cc3)C(=O)N(C)CC(=O)N[C@@H](CCc3cc(F)c(C(F)(F)F)c(F)c3)C(=O)N2C1 [PP0635] | B (a compound having 3 or more and less than 10 is denoted as B) | 2.7 nM | B (a compound having 3 or more and less than 10 is denoted as B) | – | – | – | – | –
CCO[C@@H]1C[C@H]2C(=O)NC3(CCC3)C(=O)N(C)[C@@H](C3CCCC3)C(=O)N(C)[C@H](C(=O)N3CCOCC3)CC(=O)N(C)[C@@H](CC(C)C)C(=O)N[C@@H](C3CC(F)(F)C3)C(=O)N(C)CC(=O)N(C)[C@H]3CCCCN(C3=O)[C@@H](Cc3ccc(C(F)(F)F)cc3)C(=O)N(C)CC(=O)N[C@@H](CCc3cc(F)c(C(F)(F)F)c(F)c3)C(=O)N2C1 [PP0807] | B (a compound having 3 or more and less than 10 is denoted as B) | 0.059 nM | B (a compound having 3 or more and less than 10 is denoted as B) | – | – | – | – | –
CC[C@@H]1C[C@H]2C(=O)NC3(CCCC3)C(=O)N(C)[C@@H](C3CCCC3)C(=O)N(C)[C@H](C(=O)N(C)CC)CC(=O)N(C)[C@@H](C)C(=O)N[C@@H]([C@@H](C)CC)C(=O)N(C)CC(=O)N(C)[C@H]3C/C=C\CCN(C3=O)[C@@H](Cc3ccc(C(F)(F)F)cc3)C(=O)N(C)CC(=O)N[C@@H](CCc3cc(F)c(C(F)(F)F)c(F)c3)C(=O)N2C1 [PP2271] | – | – | – | A (a compound having 10 or more and less than 20 is denoted as A) | 0.29 nM | A (a compound having 10 or more and less than 20 is denoted as A) | – | –
CCC[C@H]1C(=O)N[C@@H]([C@@H](C)CC)C(=O)N(C)CC(=O)N(C)[C@H]2C/C=C\CCN(C2=O)[C@@H](CC2CCC(F)(F)CC2)C(=O)N(C)CC(=O)N[C@@H](CCc2ccc(C(F)(F)F)c(OC)c2)C(=O)N2C[C@H](OCC)C[C@H]2C(=O)N(C)C2(CCC2)C(=O)N(C)[C@@H](C2CCCC2)C(=O)N(C)[C@H](C(=O)N(C)C)CC(=O)N1C [PP2348] | – | – | – | A (a compound having 10 or more and less than 20 is denoted as A) | 0.34 nM | A (a compound having 10 or more and less than 20 is denoted as A) | – | –
CCO[C@@H]1C[C@H]2C(=O)NC3(CCC3)C(=O)N(C)[C@@H](C3CCCC3)C(=O)N(C)[C@H](C(=O)N(C)C)CC(=O)N(C)[C@@H](COC)C(=O)N[C@@H]([C@@H](C)CC)C(=O)N(C)CC(=O)N(C)[C@H]3CCCCCN(C3=O)[C@@H](Cc3ccc(C(F)(F)F)cc3)C(=O)N(C)CC(=O)N[C@@H](CCc3cc(F)c(C(F)(F)F)c(F)c3)C(=O)N2C1 [PP0674] | B (a compound having 3 or more and less than 10 is denoted as B) | 0.16 nM | B (a compound having 3 or more and less than 10 is denoted as B) | – | – | – | – | –
CC[C@H](C)[C@@H]1NC(=O)[C@H](CC(C)C)N(C)C(=O)C[C@@H](C(=O)N2CCOCC2)N(C)C(=O)[C@H](C2CCCC2)N(C)C(=O)C2(CCCC2)NC(=O)[C@@H]2C[C@H](OC)CN2C(=O)[C@H](CCc2cc(F)c(C(F)(F)F)c(F)c2)NC(=O)CN(C)C(=O)[C@H](Cc2ccc(C(F)(F)F)cc2)N2CCCCC[C@@H](C2=O)N(C)C(=O)CN(C)C1=O [PP0495] | A (a compound having 10 or more and less than 20 is denoted as A) | 5.1 nM | B (a compound having 3 or more and less than 10 is denoted as B) | – | – | – | – | –
CCCN1C(=O)CN(C)C(=O)CN(C)C(=O)[C@H]([C@@H](C)CC)NC(=O)[C@H](CC(C)C)N(C)C(=O)C[C@@H](C(=O)N2CCOCC2)N(C)C(=O)[C@H](C2CCCC2)N(C)C(=O)C2(CC2)NC(=O)[C@@H]2CCCN2C(=O)[C@H](CCc2ccc(C(F)(F)F)c(Cl)c2)NC(=O)CN(C)C(=O)[C@@H]1Cc1ccc(C(F)(F)F)cc1 [PP0229] ([NMeL]I[Sar][Sar][NPrPhe(4-CF3)][Sar][hPhe(3-Cl-4-CF3)]P[Ac3c][NMeGly(cPent)][NMeD]-Morpholide; lactam N-11) | – | 0.25 nM | – | B (a compound having 3 or more and less than 10 is denoted as B) | – | B (a compound having 3 or more and less than 10 is denoted as B) | – | –
CC[C@H](C)[C@@H]1NC(=O)[C@H](COC)N(C)C(=O)C[C@@H](C(=O)N2CCOCC2)N(C)C(=O)[C@H](C2CCCC2)N(C)C(=O)C2(CCC2)NC(=O)[C@@H]2CC(F)(F)CN2C(=O)[C@H](CCc2cc(F)c(C(F)(F)F)c(F)c2)NC(=O)CN(C)C(=O)[C@H](Cc2ccc(C(F)(F)F)cc2)N2CCCCC[C@@H](C2=O)N(C)C(=O)[C@@H]2CCN2C1=O [PP0866] | – | – | – | B (a compound having 3 or more and less than 10 is denoted as B) | 0.53 nM | B (a compound having 3 or more and less than 10 is denoted as B) | – | –
CCCN1C(=O)CN(C)C(=O)CN(CC)C(=O)[C@H]([C@@H](C)CC)NC(=O)[C@H](CC(C)C)N(C)C(=O)C[C@@H](C(=O)N2CCOCC2)N(C)C(=O)[C@H](C2CCCC2)N(C)C(=O)C2(CCCC2)NC(=O)[C@@H]2CC3(CC3)CN2C(=O)[C@H](CCc2ccc(C(F)(F)F)c(Cl)c2)NC(=O)CN(C)C(=O)[C@@H]1Cc1ccc(C(F)(F)F)cc1 [PP0295] ([NMeL]I[NEtG][Sar][NPrPhe(4-CF3)][Sar][hPhe(3-Cl-4-CF3)][Pro(4-spirocPr)][Ac5c][NMeGly(cPent)][NMeD]-Morpholide; lactam N-11) | – | 0.52 nM | – | B (a compound having 3 or more and less than 10 is denoted as B) | – | C (A compound having a KD ratio of 0.1 or more and less than 3 is denoted as C) | – | –
CCC[C@H]1C(=O)N[C@@H]([C@@H](C)CC)C(=O)N(C)CC(=O)N(C)[C@H]2C/C=C\CCN(C2=O)[C@@H](Cc2ccc(C(F)(F)F)cc2)C(=O)N(C)CC(=O)N[C@@H](CCc2ccc(C(F)(F)F)c(Cl)c2)C(=O)N2CC3(CC3)C[C@H]2C(=O)NC2(CC(C)(C)C2)C(=O)N(C)[C@@H](CC(C)(C)C)C(=O)N(C)[C@H](C(=O)N(C)C)CC(=O)N1C [PP2979] | – | – | – | A (a compound having 10 or more and less than 20 is denoted as A) | 0.28 nM | B (a compound having 3 or more and less than 10 is denoted as B) | – | –
CCC[C@H]1C(=O)N[C@@H]([C@@H](C)CC)C(=O)N(C)CC(=O)N(C)[C@H]2C/C=C\CCN(C2=O)[C@@H](Cc2ccc(C(F)(F)F)cc2)C(=O)N(C)CC(=O)N[C@@H](CCc2ccc3sc(F)c(C)c3c2)C(=O)N2C[C@H](OCC)C[C@H]2C(=O)NC2(CC(C)(C)C2)C(=O)N(C)[C@@H](C2CCCC2)C(=O)N(C)[C@H](C(=O)N(C)C)CC(=O)N1C [PP2948] | – | 0.055 nM | – | – | – | – | A (a compound having 10 or more and less than 20 is denoted as A) | A (a compound having 10 or more and less than 20 is denoted as A)
CCC[C@H]1C(=O)N[C@@H]([C@@H](C)CC)C(=O)N(C)CC(=O)N(C)[C@H]2C/C=C\CCN(C2=O)[C@@H](Cc2ccc(C)cc2)C(=O)N(C)CC(=O)N[C@@H](CCc2ccc3c(C)c(C)n(C)c3c2)C(=O)N2C[C@H](OCC)C[C@H]2C(=O)NC2(CC(C)(C)C2)C(=O)N(C)[C@@H](C2CCCC2)C(=O)N(C)[C@H](C(=O)N(C)C)CC(=O)N1C [PP2895] | – | 3.2 nM | – | – | – | – | A (a compound having 10 or more and less than 20 is denoted as A) | A (a compound having 10 or more and less than 20 is denoted as A)
